Source: patent US20050101595A1, “N-containing cycloalkyl-substituted amino-thiazole derivatives and pharmaceutical compositions for inhibiting cell proliferation and methods for their use” (PFIZER INC., priority 2003, published 2005)
Where two headings read alike, the source gives them in different places.

Columns and labels:
[1] = target: human CDK4 and genetically truncated (1-264) cyclin D3 (Homo sapiens, UniProt P11802); assay: Inhibition of CDK4/Cyclin D Retinoblastoma Kinase Activity; format: biochemical; conditions: for Ki: apparent Ki, CDK4/truncated cyclin D3, Rb fragment substrate, 25 μM ATP
Sequence of human CDK4 and genetically truncated (1-264) cyclin D3 (P11802 whole entry, the tested form may be a part): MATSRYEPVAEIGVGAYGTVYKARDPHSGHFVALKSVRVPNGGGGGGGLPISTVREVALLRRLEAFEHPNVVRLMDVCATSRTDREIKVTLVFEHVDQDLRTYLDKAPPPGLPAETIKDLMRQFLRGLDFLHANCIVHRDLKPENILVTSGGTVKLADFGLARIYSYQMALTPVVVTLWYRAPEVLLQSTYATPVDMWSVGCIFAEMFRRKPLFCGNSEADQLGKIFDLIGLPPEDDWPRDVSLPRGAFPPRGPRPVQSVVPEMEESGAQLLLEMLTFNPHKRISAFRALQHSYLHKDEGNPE
Sequence of human CDK4 and genetically truncated (1-264) cyclin D3 (P30281 1-264 partner): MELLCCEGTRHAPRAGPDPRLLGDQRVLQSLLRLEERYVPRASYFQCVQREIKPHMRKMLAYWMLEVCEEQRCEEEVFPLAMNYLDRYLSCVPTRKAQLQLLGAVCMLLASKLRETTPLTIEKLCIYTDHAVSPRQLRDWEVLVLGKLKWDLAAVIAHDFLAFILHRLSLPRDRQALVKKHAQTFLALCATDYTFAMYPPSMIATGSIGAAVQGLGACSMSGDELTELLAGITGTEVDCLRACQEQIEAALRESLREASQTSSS
Method in brief: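 Apparent Ki values come from competitive or competitive tight-binding inhibition fits of background-corrected 32P/33P incorporation into His-tagged Rb fragment (386-928), captured on nitrocellulose. Reaction: 5 nM insect-cell-expressed human CDK4 with cyclin D3 (1-264), 25 μM ATP, pH 7.4 HEPES, 2% DMSO, 30° C., 20 min, extended to 60 min for tight-binding inhibitors.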

CDK2/Cyclin A = CDK2/Cyclin A (Homo sapiens, UniProt P24941); assay: Inhibition of CDK2/Cyclin A Retinoblastoma Kinase Activity; format: biochemical; conditions: for Ki: apparent Ki, CDK2/proteolyzed cyclin A, Rb fragment substrate, 25 μM ATP
Method in brief: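 Radiometric filter-binding readout of phosphate transfer to an Rb substrate fragment by purified CDK2/truncated cyclin A at 10 or 19 nM. Run at pH 7.4 with 25 μM ATP, 30 °C, 60–75 min, linear rates; background without enzyme subtracted, Ki from competitive-inhibition models.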

HCT-116 cell line = assay: Inhibition of cell growth, tetrazolium salt (MTT) assay; format: cell-based; conditions: for HCT-116 % Inhibition at 0.25 μM: 0.25 μM compound; for IC50: Homo sapiens, HCT-116, 120 h, MTT, three to five days, read-out: HCT-116 IC50
Method in brief: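 Growth inhibition by MTT reduction at 540 nm (0.2 mg/mL, 4 h at 37° C, formazan dissolved in DMSO), normalized to cells given only 0.5% v/v DMSO. HCT-116 cultures in McCoy's 5A were dosed 4 h post-plating and kept three to five days at 37° C, 5% CO2.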

[2] = 0.1 μM compound, HCT-116, Table 4
[3] = 0.1 μM compound, HCT-116, Table 3

## Nc1nc(NC2CCN(C(=O)CCc3ccccc3)CC2)sc1C(=O)c1c(F)cccc1F [Example Q48]
[1]; 0.03 μM compound, Table 4
  CDK4 % Inhibition at 0.03 μM: 48%
CDK2/Cyclin A; 0.03 μM compound, Table 4
  CDK2 % Inhibition at 0.03 μM: 5%
HCT-116 cell line; [2]
  HCT-116 % Inhibition at 0.1 μM: 0%
HCT-116 cell line; HCT-116, Table 4
  HCT-116 % Inhibition at 0.25 μM: 19%

## Nc1nc(NC2CCN(C(=O)C(=O)c3c[nH]c4ccccc34)CC2)sc1C(=O)c1c(F)cccc1F [Example R5]
[1]; at 0.03 μM
  CDK4 % Inhibition at 0.03 μM: 9%
CDK2/Cyclin A; at 0.03 μM
  CDK2 % Inhibition at 0.03 μM: −31%
HCT-116 cell line; HCT-116 cells, at 0.1 μM
  HCT-116 % Inhibition at 0.1 μM: 13%
HCT-116 cell line; HCT-116 cells
  HCT-116 5 Inhibition at 0.25 μM: 49

## Nc1nc(NC2CCN(S(=O)(=O)c3ccc(Cl)c4nonc34)CC2)sc1C(=O)c1c(F)cccc1F [Example P75]
[1]; 0.03 μM compound, Table 3
  CDK4 % Inhibition at 0.03 μM: 79%
CDK2/Cyclin A; 0.03 μM compound, Table 3
  CDK2 % Inhibition at 0.03 μM: 60%
HCT-116 cell line; [3]
  HCT-116 % Inhibition at 0.1 μM: 27%
HCT-116 cell line; HCT-116, Table 3
  HCT-116 % Inhibition at 0.25 μM: 43%

## Nc1nc(NC2CCN(C(=O)c3ccc(C(F)(F)F)cc3)CC2)sc1C(=O)c1c(F)cccc1F [Example Q33]
[1]; 0.03 μM compound, Table 4
  CDK4 % Inhibition at 0.03 μM: 65%
CDK2/Cyclin A; 0.03 μM compound, Table 4
  CDK2 % Inhibition at 0.03 μM: 23%
HCT-116 cell line; [2]
  HCT-116 % Inhibition at 0.1 μM: 0%
HCT-116 cell line; HCT-116, Table 4
  HCT-116 % Inhibition at 0.25 μM: 16%

## N#CCCCS(=O)(=O)N1CCC(Nc2nc(N)c(C(=O)c3c(F)cccc3F)s2)CC1 [Example K17, 1-(4-{4-Amino-5-[1-(2,6-difluorophenyl)methanoyl]-thiazol-2-ylamino}-piperidine-1-sulfonyl)butyronitrile.]
[1]
  Ki: 3.4 nM
CDK2/Cyclin A
  Ki: 2.5 nM
HCT-116 cell line; first HCT-116 column (c4)
  IC50: 890 nM
HCT-116 cell line; second HCT-116 column (c5)
  IC50: 2200 nM

## CC(C)(C)c1ccc(S(=O)(=O)N2CCC(Nc3nc(N)c(C(=O)c4c(F)cccc4F)s3)CC2)cc1 [Example P22]
[1]; 0.03 μM compound, Table 3
  CDK4 % Inhibition at 0.03 μM: 38%
CDK2/Cyclin A; 0.03 μM compound, Table 3
  CDK2 % Inhibition at 0.03 μM: 29%
HCT-116 cell line; [3]
  HCT-116 % Inhibition at 0.1 μM: 27%
HCT-116 cell line; HCT-116, Table 3
  HCT-116 % Inhibition at 0.25 μM: 31%

## CN1CCN(Cc2ccc(S(=O)(=O)N3CCC(Nc4nc(N)c(C(=O)c5c(F)cccc5F)s4)CC3)cc2)CC1 [Example J7]
[1]
  Ki: 0.78 nM
CDK2/Cyclin A
  Ki: 1.9 nM
HCT-116 cell line; first HCT-116 column (c4)
  IC50: 130 nM
HCT-116 cell line; second HCT-116 column (c5)
  IC50: 300 nM

## CN(C)CCSCCCS(=O)(=O)N1CCC(Nc2nc(N)c(C(=O)c3c(F)cccc3F)s2)CC1 [Example K24, 1-(4-Amino-2-{1-[3-(2-dimethylamino-ethylsulfanyl)-propane-1-sulfonyl]-piperidin-4-ylamino}-thiazol-5-yl)-1-(2,6-difluoro-phenyl)-methanone.]
[1]
  Ki: 2 nM
CDK2/Cyclin A
  Ki: 5.9 nM
HCT-116 cell line; first HCT-116 column (c4)
  IC50: > 50 nM
HCT-116 cell line; second HCT-116 column (c5)
  IC50: > 50 nM

## Nc1nc(NC2CCN(C(=O)c3cccnc3Oc3ccccc3)CC2)sc1C(=O)c1c(F)cccc1F [Example R27]
[1]; at 0.03 μM
  CDK4 % Inhibition at 0.03 μM: 19%
CDK2/Cyclin A; at 0.03 μM
  CDK2 % Inhibition at 0.03 μM: 6%
HCT-116 cell line; HCT-116 cells, at 0.1 μM
  HCT-116 % Inhibition at 0.1 μM: 0%
HCT-116 cell line; HCT-116 cells
  HCT-116 5 Inhibition at 0.25 μM: 43

## Cc1c(S(=O)(=O)N2CCC(Nc3nc(N)c(C(=O)c4c(F)cccc4F)s3)CC2)sc2ccc(Cl)cc12 [Example P69]
[1]; 0.03 μM compound, Table 3
  CDK4 % Inhibition at 0.03 μM: 21%
CDK2/Cyclin A; 0.03 μM compound, Table 3
  CDK2 % Inhibition at 0.03 μM: −2%
HCT-116 cell line; [3]
  HCT-116 % Inhibition at 0.1 μM: 13%
HCT-116 cell line; HCT-116, Table 3
  HCT-116 % Inhibition at 0.25 μM: 30%

## CNc1ccc(S(=O)(=O)N2CCC(Nc3nc(N)c(C(=O)c4c(F)cccc4F)s3)CC2)cn1 [Example G7, 1-{4-Amino-2-[1-(6-methylamino-pyridine-3-sulfonyl)-piperidin-4-ylamino]-thiazol-5-yl}-1-(2,6-difluoro-phenyl)-methanone]
[1]
  Ki: 1.6 nM
CDK2/Cyclin A
  Ki: 0.75 nM
HCT-116 cell line; first HCT-116 column (c4)
  IC50: 180 nM
HCT-116 cell line; second HCT-116 column (c5)
  IC50: 650 nM

## Nc1nc(NC2CCN(Cc3ccccc3)CC2)sc1C(=O)c1c(F)cccc1F [Example A3, 1-[4-Amino-2-(1-benzyl-piperidin-4-ylamino)-thiazol-5-yl]-1-(2,6-difluoro-phenyl)-methanone]
[1]
  Ki: 130 nM
CDK2/Cyclin A
  Ki: 490 nM
HCT-116 cell line; first HCT-116 column (c4)
  IC50: 1700 nM
HCT-116 cell line; second HCT-116 column (c5)
  IC50: 3100 nM

## Nc1nc(NC2CCN(S(=O)(=O)c3ccc(F)cc3)CC2)sc1C(=O)c1c(F)cccc1F [Example P13]
[1]; 0.03 μM compound, Table 3
  CDK4 % Inhibition at 0.03 μM: 77%
CDK2/Cyclin A; 0.03 μM compound, Table 3
  CDK2 % Inhibition at 0.03 μM: 75%
HCT-116 cell line; [3]
  HCT-116 % Inhibition at 0.1 μM: 19%
HCT-116 cell line; HCT-116, Table 3
  HCT-116 % Inhibition at 0.25 μM: 31%
